Reference: patent US4225619A, “Substituted fluoracylresorcinols” (Boehringer Ingelheim GmBH, priority 1976, dated 1980)
Converted amounts (≈) assume the structure as drawn. Where two headings read alike, the source gives them in different places. One block for each compound: values may come before it.

Columns and labels:
Corynebacterium acnes = test: Serial dilution test for Corynebacterium acnes; type: cell-based; conditions: Cutibacterium acnes, 37° C. for 48 hours, read-out: MIC, S.D.T., Corynebacterium acnes
Experimental: (§1) Serial dilution test for Corynebacterium acnes and Pityrosporum ovale Nutrient medium
(§2) For Corynebacterium acnes: thioglycolate-broth for Pityrosporum ovale: Littmann's broth, 5 ml per tube.
(§3) Suspension of microorganisms in 0.9% sodium chloride solution, standardized using a photometer according to Eppendorf by means of a suspension for comparison consisting of barium sulfate, for Corynebacterium acnes in a dilution of 1:100, for Pityrosporum ovale in an undiluted state. 0.1 ml of the suspensions was used per test tube. Dimethyl sulfoxide served as a solvent for the substances.
(§4) The suspension with Corynebacteria acnes was incubated at 37° C. for 48 hours, the suspension of Pityrosporum ovale at 27° C. for 7 days. The reading was effected by macroscopic evaluation of the growth of microorganisms and registration of the minimal inhibitory concentration.

Streptococcus Aronson [1] = test: Agar diffusion test (hole-test); type: cell-based; conditions: 18-20 hours at 37° C., read-out: MIC, A.D.T., Streptococcus Aronson
Experimental: (§5) The inhibitory effect on bacteria and fungi was examined by the serial dilution test and the agar diffusion test (hole-test). As bacteria were used: Staphylococcus aureus SG 511, Streptococcus Aronson, Streptococcus pyogenes At CC 86 68; as fungi: Candida albicans AT CC 10231, Trichophyton mentagrophytes AT CC 9129 and Aspergillus niger.
(§6) 2. Glucose agar: for Sc. Aronson and St. pyogenes Recipe see meat extract agar. After sterilization 1 weight percent of glucose is added as a sterile 50% solution.
(§7) The age of the primary cultures is 24 hours for bacteria and 14 days for fungi. The standardization of the suspension of microorganisms is effected using a photometer according to Eppendorf (test tube .phi.14 mm, filter 546 nm) and a suspension for comparison consisting of barium sulfate, this suspension being created by addition of 3.0 ml of 1% barium chloride solution to 97 ml of 1% sulfuric acid. After the standardization St. aureus SG 511 was diluted 1:1000 and Sc. pyogenes and Aronson 1:100 by means of sodium chloride solution. The fungi were used in an undiluted state.
(§8) 40 mgm of the substance were put into a 10 ml measuring flask and filled up to the mark with the solvent (corresponds to a dilution of 1:250=4000 μg/ml).
(§9) The dilutions to the concentrations under test were effected with distilled water or the respective solvent.
(§10) 19 ml of the nutrient medium were filled into sterile Petri dishes of a diameter of 8 cm and dried. Subsequently the agar plates were charged with 4 ml of seed agar. 100 ml of seed agar contain 1.25 ml of the suspension of microorganisms, an agar plate thus containing 0.05 ml of the suspension of microorganisms. After solidification of the agar, 5 holes of a diameter of 5 mm were punched into the plates and filled with 0.05 ml of the correspondingly concentrated substance solution.
(§11) Control tests merely using the solvent are to be carried out simultaneously.
(§12) Bacteria were incubated at 37° C. for 18-20 hours and fungi at 27° C. for 7 days.
(§13) The diameter of the area of inhibition in mm was measured after having deducted the diameter of the hole.

[2] = test system: Streptococcus pyogenes At CC 86 68; test: Agar diffusion test (hole-test); type: cell-based; conditions: ATCC8668, 18-20 hours at 37° C., read-out: MIC, A.D.T., Streptococcus pyogenes
Experimental: as §5, §6, §7, §8, §9, §10, §11, §12, §13

[3] = test system: Staphylococcus aureus SG 511; test: Serial dilution test; type: cell-based; conditions: Staphylococcus aureus, SG511, 18-20 hours at 37° C., read-out: MIC, S.D.T., Staphylococcus aureus SG 511
Experimental: as §5
1. Meat extract broth: for St. aureus SG 511
(§14) The age of the primary cultures is 24 hours for bacteria and 14 days for fungi. The standardization of the suspension of microorganisms is effected using a photometer according to Eppendorf (test tube .phi.14 mm, filter 546 nm) and a suspension for comparison consisting of barium sulfate, this suspension being created by adition of 3.0 ml of 1% barium chloride solution to 97 ml of 1% sulfuric acid. After the standardization the bacteria were further diluted to a concentration of 1:1000 by means of sodium chloride solution, the fungi were used in an undiluted state.
(§15) 40 mgm of the substance were put into a 10 ml measuring flask and filled up to the mark with the solvent (corresponds to a dilution of 1:250=4000 μg/ml). The further dilution series was standardized with distilled water or the respective solvent and the following substance concentrations were prepared: 1000; 250; 62.5 μg/ml.
(§16) The tubes were filled with 4.9 ml of the corresponding liquid nutrient medium. Then 0.1 ml of the substance dilution prepared above was added to each tube, so that the mentioned final concentrations were present. Finally each tube was inoculated with 0.1 ml of the standardized suspension of microorganisms. Control tests merely using the solvent are to be carried out simultaneously.
as §12
(§17) The measurement is carried out macroscopically defining the minimal inhibitory concentration (the lowest still microbiostatically effective concentration).

[4] = test system: Staphylococcus aureus SG 511; test: Agar diffusion test (hole-test); type: cell-based; conditions: SG511, 18-20 hours at 37° C., read-out: MIC, A.D.T., Staphylococcus aureus SG 511
Experimental: as §5
1. Meat extract agar: for St. aureus SG 511
as §7, §8, §9, §10, §11, §12, §13

[5] = Acute toxicity in mice (LD50); conditions: mouse, in vivo, death within 14 days
Experimental: The acute toxicity was determined with mice. The LD50, the dose leading to the death of 50% of the animals within 14 days, was calculated.

Streptococcus Aronson [6] = test: Serial dilution test; type: cell-based; conditions: Streptococcus, 18-20 hours at 37° C., read-out: MIC, S.D.T., Streptococcus Aronson
Experimental: as §5
(§18) 2. Glucose broth: for Sc. Aronson and St. pyogenes Recipe see meat extract broth. After sterilization 1 weight percent of glucose is added as a sterile 50% solution.
as §14, §15, §16, §12, §17

[7] = test system: Streptococcus pyogenes At CC 86 68; test: Serial dilution test; type: cell-based; conditions: Streptococcus pyogenes, ATCC8668, 18-20 hours at 37° C., read-out: MIC, S.D.T., Streptococcus pyogenes
Experimental: as §5, §18, §14, §15, §16, §12, §17

humans = conditions: in some cases; cited from earlier work
Pityrosporum ovale = test: Serial dilution test for Pityrosporum ovale; type: cell-based; conditions: Malassezia furfur, 168 h, 27° C. for 7 days, read-out: MIC, S.D.T., Pityrosporum ovale
Experimental: as §1, §2, §3, §4

[8] = test system: Pityrosporum ovale CBS 1878; test: Agar diffusion test for Pityrosporum ovale CBS 1878; type: cell-based; conditions: Malassezia furfur, CBS1878, 168 h, 7 days at 27° C., read-out: MIC, A.D.T., Pityrosporum ovale
Experimental: Agar diffusion test for Pityrosporum ovale CBS 1878 Nutrient medium
Littmann's agar, 23 ml per Petri dish, diameter of dish 100 mm.
Suspension of microorganisms in 0.9% sodium chloride solution, standardized using a photometer according to Eppendorf by means of a suspension for comparison consisting of barium sulfate. 0.05 ml per plate were used. The test substances were dissolved in dimethyl sulfoxide. The incubation time was 7 days at 27° C.; the area of inhibition in mm was measured, 0.05 ml of the solution of the substance were used for each punch-hole of a diameter of 6 mm. The results of these tests are recorded in the following tables 1 and 2: […]

[9] = test system: Trichophyton mentagrophytes AT CC 9129; test: Serial dilution test; type: cell-based; conditions: ATCC9129, 168 h, 27° C. for 7 days, read-out: MIC, S.D.T., Trichophyton mentagrophytes
Experimental: as §5
(§19) 3. Sabouraud broth: for C. alb., Trich. mnt., A. niger
as §14, §15, §16, §12, §17

Aspergillus niger [10] = test: Serial dilution test; type: cell-based; conditions: Aspergillus niger, 168 h, 27° C. for 7 days, read-out: MIC, S.D.T., Aspergillus niger
Experimental: as §5, §19, §14, §15, §16, §12, §17

[11] = test system: Candida albicans AT CC 10231; test: Serial dilution test; type: cell-based; conditions: Candida albicans, ATCC10231, 168 h, 27° C. for 7 days, read-out: MIC, S.D.T., Candida albicans
Experimental: as §5, §19, §14, §15, §16, §12, §17

[12] = test system: Trichophyton mentagrophytes AT CC 9129; test: Agar diffusion test (hole-test); type: cell-based; conditions: ATCC9129, 168 h, 27° C. for 7 days, read-out: MIC, A.D.T., Trichophyton mentagrophytes
Experimental: as §5
(§20) 3. Sabouraud agar: for C. alb., Trich. ment., A. niger
as §7, §8, §9, §10, §11, §12, §13

Aspergillus niger [13] = test: Agar diffusion test (hole-test); type: cell-based; conditions: 168 h, 27° C. for 7 days, read-out: MIC, A.D.T., Aspergillus niger
Experimental: as §5, §20, §7, §8, §9, §10, §11, §12, §13

[14] = test system: Candida albicans AT CC 10231; test: Agar diffusion test (hole-test); type: cell-based; conditions: ATCC10231, 168 h, 27° C. for 7 days, read-out: MIC, A.D.T., Candida albicans
Experimental: as §5, §20, §7, §8, §9, §10, §11, §12, §13

HeLa-cell culture = test: Inhibition of HeLa cell cultures; type: cell-based; conditions: Homo sapiens, 72 h, 37° C. for 3 days, 5% carbon dioxide
Experimental: Measurement of the inhibition of cell cultures
HeLa-cell culture was treated with trypsin and adjusted to a cell number of 150,000 cells/ml of fresh medium. The substance was always dissolved in the same quantity of dimethyl sulfoxide and then further diluted with growth medium. 0.1 ml of the substance-dilutions were added to each well of microtiter plates and then 0.2 ml of cell suspension were added (4 wells per dilution). Several growth controls containing 0.1 ml of growth medium instead of 0.1 ml of substance dilution were put up. After careful mixing, the cultures were incubated at 37° C. for 3 days in a 5% carbon dioxide atmosphere. The reading was effected in comparison with these controls. The results were given as the percentage of the deficiency and degeneration compared to the growth control. […] The statements are referred to μg of substance per ml of total medium.

Structure (SMILES): CC(C)c1cc(C(=O)C(F)(F)F)c(O)c(Cc2c(O)c(C(=O)C(F)(F)F)cc(C(C)C)c2O)c1O [Compound Q, Methylene-bis-(2,6-dihydroxy-3-isopropyl-5-trifluoro-acetyl)-benzene]
- MIC (Corynebacterium acnes): 0.02 µg/mL (≈ 0.0393 µM)
- MIC (Streptococcus Aronson [1]): ≤ 15.6 µg/mL
- MIC [2]: ≤ 15.6 µg/mL
- MIC [3]: 0.08 µg/mL (≈ 0.157 µM)
- MIC [4]: ≤ 15.6 µg/mL
- LD50 at 336 h ([5]; ip, read-out: LD50 in the mouse, i.p.): 400 mg/kg
- LD50 at 336 h ([5]; po, read-out: LD50 in the mouse, p.o.): > 4000 mg/kg
- LD50 at 336 h ([5]; sc, read-out: LD50 in the mouse, s.c.): > 2 mg/kg
- MIC (Streptococcus Aronson [6]): 1.25 µg/mL (≈ 2.46 µM)
- MIC [7]: 0.001 µg/mL (≈ 0.00197 µM)

Structure (SMILES): CCCCCCc1ccc(O)cc1O [hexyl-resorcinol]
- allergies in humans (humans): in some cases cause allergies in humans

- MIC (Pityrosporum ovale): 20 µg/mL (≈ 74 µM)
- MIC [8]: 4000 µg/mL (≈ 14800 µM)
- MIC [9]: 20 µg/mL (≈ 74 µM)
- MIC (Aspergillus niger [10]): > 80 µg/mL
- MIC [11]: 80 µg/mL (≈ 296 µM)
- MIC [12]: 250 µg/mL (≈ 925 µM)
- MIC (Aspergillus niger [13]): > 4000 µg/mL
- MIC [14]: 4000 µg/mL (≈ 14800 µM)
- IC50 (HeLa-cell culture; read-out: ED50, HeLa cell culture): 1.5 µg/mL (≈ 5.55 µM)
Structure (SMILES): Cc1c(O)ccc(C(=O)C(F)(F)C(F)(F)F)c1O [V, 2,4-Dihydroxy-3-methyl-pentafluoropropiophenone]
- minimal effective concentration (HeLa-cell culture; read-out: Minimal inhibitory concentration, HeLa cell culture): ≤ 0.78 µg/mL
